The values that follow come from patent EP4215195A1, “LANATOSIDE C, CLOPIDOGREL, AND R406 IN TREATMENT OF CVD-CLONAL HEMATOPOIESIS OF INDETERMINATE POTENTIAL (CVD-CHIP)” (Genome Biologics UG, priority 2022, dated 2023).

Assay [1] concerns healthy (siScr) myeloid cells. Description: Synthetic lethality screen of a CVD drug library, alamarBlue Cell Viability assay, healthy cells. In kind it is cell-based. Particulars: THP-1 cells with control siRNA; drugs 100 µM, 48 hours; compared with Vehicle. The method, then: (§1) The established disease model can subsequently be used for drug screening. Thus, a synthetic lethality screening of a CVD (cardiovascular disease) drug library was performed, treating CHIP (siTET2) or healthy (siScr) myeloid cells.
(§2) THP-1 cells were purchased from DSMZ (ACC 16) and maintained in RPMI-1640 (Gibco) +10% Fetal Calf Serum, 1% Penicillin/Streptomycin, 1% Glutamine, 0.05 mM 2-Mercaptoethanol.
(§3) THP-1 cells were differentiated from monocytes to macrophages by supplementing the media 100 ng/mL PMA and culturing for 48 h, and then in PMA-free media for another 24 h. For routine culturing, cells were maintained at 37°C, 5% CO2, 20% O2. In cardiopathologic culturing, both THP1 cells and organoids were maintained hypoxic conditions at 37°C, 5% CO2, 1% O2.
(§4) Transfection of THP-1 cells with siRNA purchased as ON-TARGETplus pools from Horizon Discovery (TET2 siRNA pool containing: ACAAGAAAGUAGAGGGUAU (SEQ ID NO 001), ACACCUAGUUUCAGAGAAU (SEQ ID NO 002), CCUCAGAAUAAUUGUGUGA (SEQ ID NO 003), CAGCAAAGGUACUUGAUAC (SEQ ID NO 004); Control siRNA pool containing: UGGUUUACAUGUUGUGUGA (SEQ ID NO 005), UGGUUUACAUGUUUUCCUA (SEQ ID NO 006)).
(§5) Working solution of 50µM siRNA was prepared in siRNA Buffer (ThermoFisher). 2 µL of 50µM siRNA were mixed with 500 µL OptiMEM and 6.25µL LTX Reagent PLUS (ThermoFisher) and incubated at room temperature (RT) for 15 min. 6.25 µL Lipofectamine LTX was added, mixed, and incubated for 30 min at RT. 500 µL were then added to the target culture and the culture was incubated at 37°C, 5% CO2. Passaging and/or media change was performed after 24 h.
(§6) THP-1 monocytes and macrophages were cocultured overnight (18 h) with siRNA. They were then washed with PBS and used for either TET2 knockdown quality control (as described below) or for the drug screening. For the screening, cells were transferred from tissue culture flasks to 384-well plates. Drugs were added to a final concentration of 100 µM and incubated for 48 hours. An alamarBlue Cell Viability assay (Invitrogen) with a 4 h incubation was performed according to the manufacturer's instructions.
On the technique in general: Resazurin is reduced to fluorescent resorufin, in cell work by metabolically active cells.

The test system of assay [2] is CHIP (siTET2) myeloid cells. Kind of assay: Synthetic lethality screen of a CVD drug library, alamarBlue Cell Viability assay, CHIP cells. Type of assay: cell-based. Conditions: THP-1 cells with TET2 siRNA knockdown; drugs 100 µM, 48 hours; compared with Vehicle. As for the experimental part: as §1, §2, §3, §4, §5, §6
Assay [3] concerns CHIP-infiltrated cardiac organoids (siTET2). Kind of assay: Myeloid cell infiltration into cardiac organoids (Qtracker staining, coculture). Conditions: siTET2 organoids treated vs Vehicle; baseline siScr Vehicle; hypoxic coculture, 3 days.
Procedure: These MCs were utilized in the coculturing system with self-organized human cardiac organoids, where they were tracked using a Qtracker stain.
(§7) Macrophages were differentiated from THP1 monocytes, then treated with siRNAs (18 h incubation), washed, and labeled with Qtracker™ 655 Cell Labeling Kit (ThermoFisher) for 1 h according to the manufacturer's instructions, washed with PBS, and dissociated with 0.05% trypsin. Macrophages were then added to organoids and cultured at 37°C, 5% CO2, and 1%O2. Cultures were maintained in 96-well U-bottom plates.
(§8) Immunostaining, RNA extraction and cTNT assays were run after 3 days of culturing.
After an overnight PFA fixation, the organoids were washed with PBS, then treated with 1% TritonX-100 (in PBS) for 45 minutes. Afterwards, they are incubated with PBS for 10 minutes for washing. 5% horse serum (in PBS) is added to block and incubated for 45 minutes (RT) Primary antibody in 2% horse serum + 0.0002% TritonX-100 was added and the samples were incubated at 4°C overnight. Primary antibodies: Anti-Sarcomeric-actinin (Ab68167, anti-human), Anti-Cleaved Caspase-3 (Ab32042, anti-human). Samples were washed with PBS + 0.002% TritonX-100 6x10min. Secondary antibodies and additional stains were added and incubated for 4h at RT: AlexaFlour 488 (Invitrogen, A11070), AlexaFlour 555 (Invitrogen, A21425), DAPI, Qtracker labelling 655 (Invitrogen, Q25021 MP). Samples were washed by incubating with PBS+0.002%TritonX-100 for 2-3 hours at RT), and mounted on Superfrost Plus Adhesion Slides (ThermoFisher) sing transparent polish to seal the slide sides to the coverslips (Roth). Samples were imaged using SP8 Lightning Leica Confocal Microscope, using a 40x objective (for a total of 800x and 300x magnification with zoom factors and eye lenses).
Assay [4] deals with healthy (siScr) myeloid cells. Kind of assay: Trypan Blue Assay (cell death), healthy cells. In kind it is cell-based.
Assay [5] relates to CHIP (siTET2) myeloid cells. Description: Cl. Caspase Assay (apoptosis), CHIP cells. Type of assay: cell-based.
For assay [6], the system named is cardiac organoids infiltrated with CHIP myeloid cells. Description: Gene expression (RNA levels of markers) in cardiac organoids infiltrated with CHIP myeloid cells. Particulars: treated vs Vehicle; normalized to healthy state = 1.0. Type of assay: cell-based, human.
Procedure: as §7, §8
The test system of assay [7] is CHIP-infiltrated cardiac organoids (siTET2). Description: Cardiomyocyte apoptosis in cardiac organoids (Cleaved Caspase staining colocalized with α-Actinin). In kind it is cell-based, human. Particulars: siTET2 organoids treated vs Vehicle; healthy = siScr. From the text: To assess the CM death, the inventors used cleaved caspase staining which labels apoptotic cells. […] The increase in CM death in the TET2 KD group is further verified by an increase in cardiac troponin T (cTNT), a prognostic cardiac damage clinical biomarker (* p <0.05).

For assay [8] the test system is unchanged. Description: cTNT assay (Human Cardiac Troponin T ELISA) in organoid coculture. Particulars: siTET2 organoids treated vs Vehicle; healthy = siScr; 3 days of culturing. In kind it is cell-based. The method, then:
The cTNT assay was performed using the Human Cardiac Troponin T ELISA® Kit (ab223860, Abcam) following the manufacturer's instructions.
On the technique in general: An ELISA detects its analyte on a solid surface through an enzyme-linked reagent.

Assay [9] has as its system healthy (siScr) myeloid cells. Description: Cl. Caspase Assay (apoptosis), healthy cells. Type of assay: cell-based.
Assay [10] has as its system CHIP (siTET2) myeloid cells. Description: Trypan Blue Assay (cell death), CHIP cells. Type of assay: cell-based.

Regarding `CCCCC[C@H](O)CC[C@@H]1[C@H]2Cc3cccc(OCC(=O)O)c3C[C@H]2C[C@H]1O` [Treprostinil Sodium], the “viability of healthy (siScr) cells” value in assay [1] is recorded as “also decrease the viability of healthy cells”.

As for `C[C@H]1O[C@@H](O[C@H]2[C@@H](O)C[C@H](O[C@H]3[C@@H](O)C[C@H](O[C@H]4CC[C@@]5(C)[C@H](CC[C@@H]6[C@@H]5CC[C@]5(C)[C@@H](C7=CC(=O)OC7)CC[C@]65O)C4)O[C@@H]3C)O[C@@H]2C)C[C@H](O)[C@@H]1O` [Digitoxin], the “viability of CHIP myeloid cells (siTET2)” value in assay [2] is “only Ginsenoside Rb1 was found to do so significantly”.

Turning to `CCCSc1nc(N[C@@H]2C[C@H]2c2ccc(F)c(F)c2)c2nnn([C@@H]3C[C@H](OCCO)[C@@H](O)[C@H]3O)c2n1` [Ticagrelor], the “viability of healthy (siScr) cells” value in assay [1] is “also decrease the viability of healthy cells”.

Consider `COC(=O)[C@H](c1ccccc1Cl)N1CCc2sccc2C1` [Clopidogrel, clopidogrel], for which the “viability of healthy (siScr) cells” value in assay [1] is on record as “without compromising the viability of healthy (siScr) cells”. The “infiltration of myeloid cells into organoids (Qtracker-stained area)” value (from here on “infiltration”) in [3] is “decreased levels of Qtracker-stained area upon treatment of siTET2 cells back to the baseline healthy levels”. Also, the “cell death of healthy (siScr) cells (Trypan Blue Assay)” value (“cell death of healthy (siScr) cells” for short) in assay [4] is given as “without inflicting harm on the healthy (siScr) cells”. Moreover, the “apoptosis of CHIP myeloid cells (CI. Caspase Assay)” value in [5] is “increase the levels of cell death of CHIP myeloid cells (Trypan Blue Assay) and apoptosis in particular”. Further, in assay [2], the “viability of CHIP myeloid cells (siTET2)” value was “selectively inhibit the viability of CHIP myeloid cells (siTET2)”. For the same molecule, in [6], the “RNA levels of myeloid, inflammatory, heart failure and fibrotic markers” value (“RNA levels of myeloid, inflammatory” below) is “rescued upon treatment with the 3 aforementioned drugs back down towards healthy levels (≤1.0)”. Moreover, the “cardiomyocyte apoptosis levels (areas of Cleaved Caspase staining)” value (shortened to “cardiomyocyte apoptosis levels”) in [7] is listed as “decreased areas of Cleaved Caspase staining back towards healthy levels”. Besides, the “levels of the prognostic marker cTNT” value in assay [8] is reported as “decreased back to healthy levels”. In addition, the “apoptosis of healthy (siScr) cells (CI. Caspase Assay)” value in assay [9] is reported as “without inflicting harm on the healthy (siScr) cells”. Also, in assay [10], the “levels of cell death of CHIP myeloid cells (Trypan Blue Assay)” value (“levels of cell death … (Trypan Blue Assay)” below) was “increase the levels of cell death of CHIP myeloid cells”.

For `CC(=O)O[C@H]1C[C@H](O[C@H]2[C@@H](O)C[C@H](O[C@H]3[C@@H](O)C[C@H](O[C@H]4CC[C@@]5(C)[C@H](CC[C@@H]6[C@@H]5C[C@@H](O)[C@]5(C)[C@@H](C7=CC(=O)OC7)CC[C@]65O)C4)O[C@@H]3C)O[C@@H]2C)O[C@H](C)[C@H]1O[C@@H]1O[C@H](CO)[C@@H](O)[C@H](O)[C@H]1O` [Lanatoside C, lanatoside C], in [1], the “viability of healthy (siScr) cells” value is given as “without compromising the viability of healthy (siScr) cells”. The “infiltration” value in assay [3] is recorded as “decreased levels of Qtracker-stained area upon treatment of siTET2 cells back to the baseline healthy levels”. The “cell death of healthy (siScr) cells” value in [4] was “without inflicting harm on the healthy (siScr) cells”. For the same molecule, the “apoptosis of CHIP myeloid cells (CI. Caspase Assay)” value in assay [5] was “increase the levels of cell death of CHIP myeloid cells (Trypan Blue Assay) and apoptosis in particular”. For the same molecule, the “viability of CHIP myeloid cells (siTET2)” value in [2] was “selectively inhibit the viability of CHIP myeloid cells (siTET2)”. Besides, the “RNA levels of myeloid, inflammatory” value in assay [6] was “rescued upon treatment with the 3 aforementioned drugs back down towards healthy levels (≤1.0)”. The “cardiomyocyte apoptosis levels” value in assay [7] is “decreased areas of Cleaved Caspase staining back towards healthy levels”. For the same molecule, in assay [8], the “levels of the prognostic marker cTNT” value was “decreased back to healthy levels”. Also, in [9], the “apoptosis of healthy (siScr) cells (CI. Caspase Assay)” value was “without inflicting harm on the healthy (siScr) cells”. Further, the “levels of cell death … (Trypan Blue Assay)” value in assay [10] is “increase the levels of cell death of CHIP myeloid cells”.

In the case of Escin, the “viability of CHIP myeloid cells (siTET2)” value in assay [2] is “only Ginsenoside Rb1 was found to do so significantly”.

Turning to `CC(=O)Oc1cc(C(F)(F)F)ccc1C(=O)O` [Triflusal], the “viability of healthy (siScr) cells” value in [1] was “also decrease the viability of healthy cells”.

In the case of `CC(C)=CCC[C@](C)(O[C@@H]1O[C@H](CO[C@@H]2O[C@H](CO)[C@@H](O)[C@H](O)[C@H]2O)[C@@H](O)[C@H](O)[C@H]1O)[C@H]1CC[C@]2(C)[C@@H]1[C@H](O)C[C@@H]1[C@@]3(C)CC[C@H](O[C@@H]4O[C@H](CO)[C@@H](O)[C@H](O)[C@H]4O[C@@H]4O[C@H](CO)[C@@H](O)[C@H](O)[C@H]4O)C(C)(C)[C@@H]3CC[C@]12C` [Ginsenoside Rb1], the “viability of healthy (siScr) cells” value in assay [1] is on record as “also decreases the viability of healthy cells”. Further, the “viability of CHIP myeloid cells (siTET2)” value in [2] was “found to do so significantly”.

Take `COc1cc(Nc2ncc(F)c(Nc3ccc4c(n3)NC(=O)C(C)(C)O4)n2)cc(OC)c1OC` [R406]: the “viability of healthy (siScr) cells” value in [1] is “without compromising the viability of healthy (siScr) cells”. For the same molecule, the “infiltration” value in assay [3] is listed as “decreased levels of Qtracker-stained area upon treatment of siTET2 cells back to the baseline healthy levels”. Further, in assay [4], the “cell death of healthy (siScr) cells” value is listed as “without inflicting harm on the healthy (siScr) cells”. For the same molecule, the “apoptosis of CHIP myeloid cells (CI. Caspase Assay)” value in [5] was “increase the levels of cell death of CHIP myeloid cells (Trypan Blue Assay) and apoptosis in particular”. In assay [2], the “viability of CHIP myeloid cells (siTET2)” value was “selectively inhibit the viability of CHIP myeloid cells (siTET2)”. In addition, in [6], the “RNA levels of myeloid, inflammatory” value is reported as “rescued upon treatment with the 3 aforementioned drugs back down towards healthy levels (≤1.0)”. The “cardiomyocyte apoptosis levels” value in assay [7] is listed as “decreased areas of Cleaved Caspase staining back towards healthy levels”. Further, the “levels of the prognostic marker cTNT” value in [8] is “decreased back to healthy levels”. For the same molecule, the “apoptosis of healthy (siScr) cells (CI. Caspase Assay)” value in assay [9] is reported as “without inflicting harm on the healthy (siScr) cells”. Besides, the “levels of cell death … (Trypan Blue Assay)” value in assay [10] is reported as “increase the levels of cell death of CHIP myeloid cells”.
